From article PMC10789292 (Journal of Alzheimer's Disease Reports, 2023)

Test system: cPLA2-IVA expressed in mouse brain
Assay: Peptide binding to brain slices by IHC
Conditions: for Binding (staining) to healthy NMRI and APP/PS1 mouse brain slices: biotinylated peptide 20 μM in HCN, overnight 4°C, DAB detection

| Sequence | Binding (staining) to healthy NMRI and APP/PS1 mouse brain slices | Staining of APP/PS1 versus healthy brain slices (biotinylated peptide 20 μM, 2 years old APP/PS1 mice) |
| --- | --- | --- |
| DDFRVWWPNFPR [PLP2] | good staining |  |
| HVTLRYMHPMVS [PLP25] | good staining | higher staining of APP/PS1 brain slices |
| YQFGYDYPRSQV [PLP1] | unable to bind the brain tissue |  |
